System: strains of Enterobacteriaceae producing various carbapenemases (class A, D and B; 169 strains)
Experiment: Meropenem or tebipenem potentiation by Compounds 97 or 62 (MIC)
Type: cell-based
Outline: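 Meropenem and tebipenem MICs measured alone or with Compound 97 or 62 held at a fixed 8 μg/ml in the growth medium. Panel of 169 clinical Enterobacteriaceae isolates expressing class A, D and B carbapenemases, alone or with other beta-lactamases.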

C[C@@H](O)[C@H]1C(=O)N2C(C(=O)O)=C(S[C@@H]3CN[C@H](C(=O)N(C)C)C3)[C@H](C)[C@H]12 [M]
Meropenem MIC alone (M) (KP1182 Klebsiella pneumoniae SHV-OSBL(2b), NDM-1, OXA-232(c)): Z (MIC of greater than 10 μg/mL)
Meropenem MIC alone (M) (KP1183 Klebsiella pneumoniae SHV-OSBL(2b), TEM-OSBL(2b), CTX-M-15, NDM-1): Z (MIC of greater than 10 μg/mL)
Meropenem MIC alone (M) (KP1184 Klebsiella pneumoniae SHV-OSBL(2b), IMP-1): Y (MIC of 1 μg/mL to 10 μg/mL)
Meropenem MIC alone (M) (KP1185 Klebsiella pneumoniae SHV-OSBL(2b), TEM-OSBL(2b), IMP-4): Z (MIC of greater than 10 μg/mL)
Meropenem MIC alone (M) (KP1186 Klebsiella pneumoniae CTX-M-15, NDM-1): Z (MIC of greater than 10 μg/mL)
Meropenem MIC alone (M) (KP1187 Klebsiella pneumoniae SHV-55(2be), TEM-OSBL(2b), CTX-M-15, NDM-1): Z (MIC of greater than 10 μg/mL)
Meropenem MIC alone (M) (KP1188 Klebsiella pneumoniae SHV-OSBL(2b), CTX-M-15, NDM-1): Y (MIC of 1 μg/mL to 10 μg/mL)
Meropenem MIC alone (M) (KP1189 Klebsiella pneumoniae TEM-OSBL(2b), CTX-M-15, CTX-M-27, NDM-1): Z (MIC of greater than 10 μg/mL)
Meropenem MIC alone (M) (KP1190 Klebsiella pneumoniae KPC-4 VIM-4 TEM SHV): Z (MIC of greater than 10 μg/mL)
Meropenem MIC alone (M) (KP1191 Klebsiella pneumoniae KPC-2): Z (MIC of greater than 10 μg/mL)
Meropenem MIC alone (M) (KP1192 Klebsiella pneumoniae KPC-2 TEM SHV): Z (MIC of greater than 10 μg/mL)
Meropenem MIC alone (M) (KP1193 Klebsiella pneumoniae KPC-3 TEM SHV): Z (MIC of greater than 10 μg/mL)
Meropenem MIC alone (M) (KP1194 Klebsiella pneumoniae KPC TEM SHV): Z (MIC of greater than 10 μg/mL)
Meropenem MIC alone (M) (KP1195 Klebsiella pneumoniae KPC TEM CTX-M-15): Z (MIC of greater than 10 μg/mL)
Meropenem MIC alone (M) (KP1196 Klebsiella pneumoniae KPC TEM SHV CTX-M-15 CMY): Z (MIC of greater than 10 μg/mL)
Meropenem MIC alone (M) (KP1197 Klebsiella pneumoniae KPC-3, VIM-1 TEM SHV): Z (MIC of greater than 10 μg/mL)
Meropenem MIC alone (M) (KP1198 Klebsiella pneumoniae KPC-3, VIM-1 TEM SHV): Z (MIC of greater than 10 μg/mL)
Meropenem MIC alone (M) (KP1199 Klebsiella pneumoniae KPC-3 TEM SHV): Z (MIC of greater than 10 μg/mL)
Meropenem MIC alone (M) (KP1200 Klebsiella pneumoniae KPC-3 TEM SHV): Z (MIC of greater than 10 μg/mL)
Meropenem MIC alone (M) (KP1210 Klebsiella pneumoniae KPC SHV TEM): Z (MIC of greater than 10 μg/mL)
Meropenem MIC alone (M) (KP1211 Klebsiella pneumoniae KPC SHV TEM CTX-M-15): Z (MIC of greater than 10 μg/mL)
Meropenem MIC alone (M) (KP1212 Klebsiella pneumoniae KPC SHV TEM CTX-M-15): Z (MIC of greater than 10 μg/mL)
Meropenem MIC alone (M) (KP1213 Klebsiella pneumoniae KPC SHV TEM CTX-M-15): Z (MIC of greater than 10 μg/mL)
Meropenem MIC alone (M) (KP1214 Klebsiella pneumoniae KPC SHV TEM + 1.9 kb): Z (MIC of greater than 10 μg/mL)
Meropenem MIC alone (M) (KP1215 Klebsiella pneumoniae KPC SHV): Z (MIC of greater than 10 μg/mL)
Meropenem MIC alone (M) (KP1216 Klebsiella pneumoniae KPC SHV TEM + 1.9 kb): Z (MIC of greater than 10 μg/mL)
Meropenem MIC alone (M) (KP1217 Klebsiella pneumoniae KPC SHV TEM + 1.9 kb): Z (MIC of greater than 10 μg/mL)
Meropenem MIC alone (M) (KP1218 Klebsiella pneumoniae KPC SHV TEM + 1.9 kb): Z (MIC of greater than 10 μg/mL)
Meropenem MIC alone (M) (KP1219 Klebsiella pneumoniae KPC SHV TEM + 1.9 kb): Z (MIC of greater than 10 μg/mL)
Meropenem MIC alone (M) (KP1220 Klebsiella pneumoniae KPC SHV TEM + 1.9 kb): Z (MIC of greater than 10 μg/mL)
Meropenem MIC alone (M) (KP1221 Klebsiella pneumoniae KPC SHV TEM + 1.9 kb): Z (MIC of greater than 10 μg/mL)
Meropenem MIC alone (M) (KP1222 Klebsiella pneumoniae KPC SHV TEM IMP): Z (MIC of greater than 10 μg/mL)
Meropenem MIC alone (M) (KP1223 Klebsiella pneumoniae KPC SHV TEM): Z (MIC of greater than 10 μg/mL)
Meropenem MIC alone (M) (KP1224 Klebsiella pneumoniae KPC SHV TEM): Z (MIC of greater than 10 μg/mL)
Meropenem MIC alone (M) (KP1225 Klebsiella pneumoniae KPC SHV TEM + 1.9 kb CMY): Z (MIC of greater than 10 μg/mL)
Meropenem MIC alone (M) (KP1226 Klebsiella pneumoniae KPC SHV TEM + 1.9 kb): Z (MIC of greater than 10 μg/mL)
Meropenem MIC alone (M) (KP1227 Klebsiella pneumoniae KPC SHV TEM CTX-M-15): Z (MIC of greater than 10 μg/mL)
Meropenem MIC alone (M) (KP1228 Klebsiella pneumoniae OXA-48 TEM SHV CTX-M-15): Y (MIC of 1 μg/mL to 10 μg/mL)
Meropenem MIC alone (M) (KP1229 Klebsiella pneumoniae OXA-48 TEM SHV CTX-M-15): Z (MIC of greater than 10 μg/mL)
Meropenem MIC alone (M) (KP1230 Klebsiella pneumoniae OXA-48 TEM SHV CTX-M-15): Y (MIC of 1 μg/mL to 10 μg/mL)
Meropenem MIC alone (M) (KP1231 Klebsiella pneumoniae OXA-48 TEM SHV CTX-M-15): Y (MIC of 1 μg/mL to 10 μg/mL)
Meropenem MIC alone (M) (KP1232 Klebsiella pneumoniae OXA-48 TEM SHV CTX-M-15): Z (MIC of greater than 10 μg/mL)
Meropenem MIC alone (M) (KP1234 Klebsiella pneumoniae OXA-48 TEM SHV CTX-M-15): Z (MIC of greater than 10 μg/mL)
Meropenem MIC alone (M) (KP1236 Klebsiella pneumoniae OXA-48 TEM SHV CTX-M-15): Z (MIC of greater than 10 μg/mL)
Meropenem MIC alone (M) (PM1024 Proteus mirabilis TEM-1(2b), CMY-16, VIM-1): Z (MIC of greater than 10 μg/mL)
Meropenem MIC alone (M) (PM1025 Proteus mirabilis SHV-5(2be), TEM-OSBL(2b), VEB-2, VIM-1): Y (MIC of 1 μg/mL to 10 μg/mL)
Meropenem MIC alone (M) (PM1026 Proteus mirabilis DHA-1, IMP-26): Z (MIC of greater than 10 μg/mL)
Meropenem MIC alone (M) (PM1027 Proteus mirabilis VIM-5): Z (MIC of greater than 10 μg/mL)
Meropenem MIC alone (M) (SM1023 Serratia marcescens VIM-4): Z (MIC of greater than 10 μg/mL)
Meropenem MIC alone (M) (SM1024 Serratia marcescens TEM-1(2b), IMP-47): Y (MIC of 1 μg/mL to 10 μg/mL)

From patent US10206937B2, “Boronic acid derivatives and therapeutic uses thereof” (Qpex Biopharma, Inc., priority 2014, dated 2019)
